# Where a name gives a salt, the structure may show the parent alone.
# Assays:
# [1] = target: T1, human recombinant serotonin 5-HT2A receptor (Homo sapiens, UniProt P28223); assay: Binding affinity for serotonin 5-HT2A receptor ([3H]Ketanserin); settings: CHO-K1 expressed receptor, 1 nM [3H]Ketanserin
# T1 construct: purchased PerkinElmer Life and Analytical Sciences, USA; host or cells: CHO-K1
# Method: Receptor binding affinities of the compounds for serotonin receptors were measured by the method described in the literature [Park W K et al., Pharmacol Biochem Behav. 2005, 82(2), 361-372].
# For serotonin 5-HT2A binding, an aliquot of human recombinant serotonin 5-HT2A receptor (PerkinElmer Life and Analytical Sciences, USA) expressed in CHO-K1 cells (5 ug/well) and 1 nM [^3H]Ketanserin (PerkinElmer) were used in the presence of mianserin (20 uM) as nonspecific. The reaction mixture was incubated for 60 min at 27 using 50 mM Tris-HCl (pH 7.4) buffer containing 4 mM CaCl2 and 0.1% ascorbic acid, and harvested through filtermate A glass fiber filter (Wallac, Finland) presoaked in 0.5% polyethyleneimine (PEI) by microbeta filtermate-96 harvester (PerkinElmer) to terminate the reaction, and then washed with ice cold 50 mM Tris-HCl buffer solution (pH 7.4). The filter was then covered with MeltiLex, sealed in a sample bag, dried in an oven. The radioactivity retained in the filter was finally counted using MicroBeta Plus (Wallac).
# (§1) The binding affinity (IC50) of a compound for the receptor was calculated by computerized nonlinear regression analysis (GraphPad Prism Program, San Diego, USA) using 7-8 varied concentrations of the compound run in duplicate tubes.
# [2] = target: T2, human recombinant 5-HT2C receptor (Homo sapiens, UniProt P28335); assay: Binding affinity for serotonin 5-HT2C receptor ([3H]Mesulergine); settings: CHO-K1 membranes, 1.3 nM [3H]Mesulergine
# T2 construct: purchased PerkinElmer
# T2 sequence (P28335 33-458): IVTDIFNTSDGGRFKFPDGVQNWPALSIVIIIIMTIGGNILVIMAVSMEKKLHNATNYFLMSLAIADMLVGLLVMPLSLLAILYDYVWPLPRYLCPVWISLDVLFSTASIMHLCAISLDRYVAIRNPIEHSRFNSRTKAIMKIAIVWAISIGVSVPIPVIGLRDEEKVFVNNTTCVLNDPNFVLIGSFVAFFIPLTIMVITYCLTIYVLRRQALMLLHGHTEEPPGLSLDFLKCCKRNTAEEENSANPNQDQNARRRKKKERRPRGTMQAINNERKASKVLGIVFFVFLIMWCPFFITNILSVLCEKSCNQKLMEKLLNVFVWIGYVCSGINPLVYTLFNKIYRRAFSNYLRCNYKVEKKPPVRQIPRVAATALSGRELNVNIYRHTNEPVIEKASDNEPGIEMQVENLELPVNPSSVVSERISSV
# Method: Receptor binding affinities of the compounds for serotonin receptors were measured by the method described in the literature [Park W K et al., Pharmacol Biochem Behav.
# as §1
# Nonspecific binding was determined using 100 uM mianserin. The incubations were performed for 60 min at 27, and these were terminated by rapid filtration through filtermate. A glass fiber filter presoaked in 0.5% PEI.
# [3] = target: T3, human serotonin transporter (Homo sapiens, UniProt P31645); assay: Binding affinity for serotonin transporter ([3H]Imipramine); settings: HEK-293 membranes, 2 nM [3H]Imipramine
# T3 construct: purchased PerkinElmer; host or cells: HEK-293
# T3 sequence (P31645 whole entry): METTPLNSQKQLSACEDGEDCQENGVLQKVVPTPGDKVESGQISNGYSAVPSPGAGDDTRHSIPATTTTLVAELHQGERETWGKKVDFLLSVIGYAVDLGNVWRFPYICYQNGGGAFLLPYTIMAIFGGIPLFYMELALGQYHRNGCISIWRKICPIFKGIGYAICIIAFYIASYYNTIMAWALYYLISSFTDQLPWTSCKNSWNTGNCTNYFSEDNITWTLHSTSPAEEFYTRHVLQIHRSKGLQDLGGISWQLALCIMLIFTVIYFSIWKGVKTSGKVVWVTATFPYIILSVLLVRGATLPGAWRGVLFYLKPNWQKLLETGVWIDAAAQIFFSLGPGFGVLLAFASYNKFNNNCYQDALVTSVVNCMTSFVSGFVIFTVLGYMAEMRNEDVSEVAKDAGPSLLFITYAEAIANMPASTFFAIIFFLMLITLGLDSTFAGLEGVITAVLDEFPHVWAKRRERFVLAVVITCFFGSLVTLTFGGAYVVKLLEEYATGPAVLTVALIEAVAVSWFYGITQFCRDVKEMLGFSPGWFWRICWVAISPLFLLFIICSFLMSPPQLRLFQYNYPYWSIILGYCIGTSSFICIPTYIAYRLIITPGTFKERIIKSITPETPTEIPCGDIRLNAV
# Method: For serotonin transporter binding assays, a reaction mixture with a final volume of 0.25 ml was prepared by mixing a test compound, human serotonin transporter membrane expressed in HEK-293 cells (PerkinElmer, 5 ug/well), [^3H]Imipramine (PerkinElmer, 2 nM) and 50 mM Tris-HCl (pH 7.4) buffer containing 120 mM NaCl and 5 mM KCl. The reaction mixture was incubated for 30 min at 27, and harvested through filtermate. A glass fiber filter presoaked in 0.5% PEI with ice cold 50 mM Tris-HCl buffer (pH 7.4) containing 0.9% NaCl.
# T1 sequence (P28223 whole entry): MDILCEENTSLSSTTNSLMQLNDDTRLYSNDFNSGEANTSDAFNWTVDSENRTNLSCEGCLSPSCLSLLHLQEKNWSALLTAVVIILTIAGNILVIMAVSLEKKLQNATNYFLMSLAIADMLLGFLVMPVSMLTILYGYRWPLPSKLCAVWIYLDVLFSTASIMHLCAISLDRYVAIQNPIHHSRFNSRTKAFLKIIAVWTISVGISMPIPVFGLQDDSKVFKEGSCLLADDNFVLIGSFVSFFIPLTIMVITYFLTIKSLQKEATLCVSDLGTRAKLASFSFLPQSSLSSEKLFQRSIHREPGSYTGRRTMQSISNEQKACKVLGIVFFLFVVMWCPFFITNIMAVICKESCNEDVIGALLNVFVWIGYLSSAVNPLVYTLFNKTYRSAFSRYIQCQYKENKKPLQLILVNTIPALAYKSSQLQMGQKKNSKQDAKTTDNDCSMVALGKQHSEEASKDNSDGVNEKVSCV
SMILES,IC50 [1] [nM],IC50 [2] [nM],IC50 [3] [nM]
"Cc1[nH]c(-c2ccccc2)cc1C(=O)NCCCCN1CCN(c2cccc(Cl)c2Cl)CC1 [Example 41, N-(4-(4-(2,3-dichlorophenyl)piperazin-1-yl)butyl)-2-methyl-5-phenyl-1H-pyrrole-3-carboxamide hydrochloride]",13,14,21
"Cc1cccc(N2CCN(CCCNC(=O)c3cc(-c4ccccc4)n(CC4CCCCC4)c3C)CC2)c1C [Example 21, 1-(Cyclohexylmethyl)-N-(3-(4-(2,3-dimethylphenyl)piperazin-1-yl)propyl)-2-methyl-5-phenyl-1H-pyrrole-3-carboxamide]",1230,638,352
"CCn1c(-c2ccccc2)cc(C(=O)NCCCN2CCN(c3cccc(Cl)c3Cl)CC2)c1C [Example 11, N-(3-(4-(2,3-dichlorophenyl)piperazin-1-yl)propyl)-1-ethyl-2-methyl-5-phenyl-1H-pyrrole-3-carboxamide]",376,66,182
"Cc1c(C(=O)NCCCN2CCN(c3cccc(Cl)c3)CC2)cc(-c2ccccc2)n1-c1ccc(F)cc1 [Example 14, N-(3-(4-(3-chlorophenyl)piperazin-1-yl)propyl)-1-(4-fluorophenyl)-2-methyl-5-phenyl-1H-pyrrole-3-carboxamide]",22.9,443,80.2
"Cc1c(C(=O)NCCCN2CCN(c3cccc(Cl)c3)CC2)cc(-c2ccccc2)n1C [Example 1, N-(3-(4-(3-chlorophenyl)piperazin-1-yl)propyl)-1,2-dimethyl-5-phenyl-1H-pyrrole-3-carboxamide]",92,160,11.1
"Cc1cccc(N2CCN(CCCCNC(=O)c3cc(-c4ccccc4)n(C)c3C)CC2)c1C [Example 35, N-(4-(4-(2,3-dimethylphenyl)piperazin-1-yl)butyl)-1,2-dimethyl-5-phenyl-1H-pyrrole-3-carboxamide hydrochloride]",61,61,149
"Cc1c(Cl)cccc1N1CCN(CCCNC(=O)c2cc(C)n(-c3ccccc3)c2C)CC1 [Example 176, N-(3-(4-(3-chloro-2-methylphenyl)piperazin-1-yl)propyl)-2,5-dimethyl-1-phenyl-1H-pyrrole-3-carboxamide]",170,127,15
"Cc1[nH]c(-c2ccccn2)cc1C(=O)NCCCN1CCN(c2cccc(Cl)c2Cl)CC1 [Example 91, N-(3-(4-(2,3-dichlorophenyl)piperazin-1-yl)propyl)-2-methyl-5-(pyridin-2-yl)-1H-pyrrole-3-carboxamide dihydrochloride]",21,211,28
"COc1cccc(N2CCN(CCCNC(=O)c3cc(-c4ccccc4)n(C)c3C)CC2)c1OC [Example 158, N-(3-(4-(2,3-dimethoxyphenyl)piperazin-1-yl)propyl)-1,2-dimethyl-5-phenyl-1H-pyrrole-3-carboxamide]",666,782,1260
"Cc1c(C(=O)NCCCN2CCN(c3cccc(Cl)c3Cl)CC2)cc(-c2ccccc2)n1Cc1ccccc1 [Example 19, 1-Benzyl-N-(3-(4-(2,3-dichlorophenyl)piperazin-1-yl)propyl)-2-methyl-5-phenyl-1H-pyrrole-3-carboxamide]",354,220,125
"Cc1[nH]c(-c2ccc(Cl)cc2)cc1C(=O)NCCCCN1CCN(c2cccc(Cl)c2Cl)CC1 [Example 47, 5-(4-chlorophenyl)-N-(4-(4-(2,3-dichlorophenyl)piperazin-1-yl)butyl)-2-methyl-1H-pyrrole-3-carboxamide hydrochloride]",56,62,122
"CCCn1c(-c2ccccc2)cc(C(=O)NCCCN2CCN(c3ccccc3C#N)CC2)c1C [Example 90, N-(3-(4-(2-cyanophenyl)piperazin-1-yl)propyl)-2-methyl-5-phenyl-1-propyl-1H-pyrrole-3-carboxamide hydrochloride]",269,637,223
"Cc1cccc(N2CCN(CCCNC(=O)c3cc(-c4ccccc4)n(-c4ccc(F)cc4)c3C)CC2)c1C [Example 15, N-(3-(4-(2,3-dimethylphenyl)piperazin-1-yl)propyl)-1-(4-fluorophenyl)-2-methyl-5-phenyl-1H-pyrrole-3-carboxamide]",6.9,162,53.6
"CCCn1c(-c2cccc(OC)c2)cc(C(=O)NCCCN2CCN(c3cccc(Cl)c3Cl)CC2)c1C [Example 82, N-(3-(4-(2,3-dichlorophenyl)piperazin-1-yl)propyl)-5-(3-methoxyphenyl)-2-methyl-1-propyl-1H-pyrrole-3-carboxamide hydrochloride]",138,43,196
"CCCn1c(-c2ccccn2)cc(C(=O)NCCN2CCN(c3cccc(Cl)c3Cl)CC2)c1C [Example 96, N-(2-(4-(2,3-dichlorophenyl)piperazin-1-yl)ethyl)-2-methyl-1-propyl-5-(pyridin-2-yl)-1H-pyrrole-3-carboxamide dihydrochloride]",410,619,381
"Cc1[nH]c(-c2ccc(Cl)cc2)cc1C(=O)NCCN1CCN(c2cccc(Cl)c2Cl)CC1 [Example 67, 5-(4-chlorophenyl)-N-(2-(4-(2,3-dichlorophenyl)piperazin-1-ypethyl)-2-methyl-1H-pyrrole-3-carboxamide hydrochloride]",100,23,233
"CCCn1c(-c2ccccc2)cc(C(=O)NCCCCN2CCN(c3cccc(Cl)c3Cl)CC2)c1C [Example 34, N-(4-(4-(2,3-dichlorophenyl)piperazin-1-yl)butyl)-2-methyl-5-phenyl-1-propyl-1H-pyrrole-3-carboxamide hydrochloride]",104,20.9,76
"CCCCc1cc(C(=O)NCCCN2CCN(c3cccc(Cl)c3Cl)CC2)c(C)n1C [Example 138, 5-butyl-N-(3-(4-(2,3-dichlorophenyl)piperazin-1-yl)propyl)-1,2-dimethyl-1H-pyrrole-3-carboxamide]",134,268,334
"CCCn1c(C)c(C(=O)NCCCN2CCN(c3cccc(Cl)c3Cl)CC2)c(C)c1-c1ccccc1 [Example 81, N-(3-(4-(2,3-dichlorophenyl)piperazin-1-yl)propyl)-2,4-dimethyl-5-phenyl-1-propyl-1H-pyrrole-3-carboxamide hydrochloride]",25,75,78
"Cc1[nH]c(-c2ccccc2)cc1C(=O)NCCN1CCN(c2cccc(Cl)c2Cl)CC1 [Example 38, N-(2-(4-(2,3-dichlorophenyl)piperazin-1-yl)ethyl)-2-methyl-5-phenyl-1H-pyrrole-3-carboxamide hydrochloride]",40,37,87
"CCn1c(-c2ccc(Cl)cc2)cc(C(=O)NCCCN2CCN(c3cccc(C)c3C)CC2)c1C [Example 63, 5-(4-chlorophenyl)-N-(3-(4-(2,3-dimethylphenyl)piperazin-1-yl)propyl)-1-ethyl-2-methyl-1H-pyrrole-3-carboxamide hydrochloride]",151,39,93
"CCCn1c(-c2ccccc2)cc(C(=O)NCCCN2CCN(c3ccccc3Br)CC2)c1C [Example 88, N-(3-(4-(2-bromophenyl)piperazin-1-yl)propyl)-2-methyl-5-phenyl-1-propyl-1H-pyrrole-3-carboxamide]",221,633,225

# From patent publication US8895558B2, “Arylpiperazine-containing pyrrole 3-carboxamide derivatives for treating depressive disorders” (Green Cross Corporation, priority 2008, dated 2014)
